# Patent US20220387411A1, “TARGETED AUTOPHAGY CONJUGATES AND METHODS” (Frontier Medicines Corporation, priority 2019, published 2022)
# Molecular target: T1, Recombinant pure human SQSTM1 protein (Homo sapiens, UniProt Q13501)
# T1 construct: purchased Origene
# Test: Inhibition of IA-Rhodamine labeling of SQSTM1 (gel-based, densitometry)
# Format: binding
# Conditions: 50 μM of test compound (initial screen); 30 min at 37° C., then 100 nM IA-Rhodamine 1 hour; inhibition of target labeling by densitometry
# Description: Recombinant pure human SQSTM1 protein was purchased from Origene. SQSTM1 protein (0.21 μg) was diluted into 50 μL of PBS and 1 μL of either DMSO (vehicle) or covalently acting small molecule (test compound) to achieve the desired concentration. After 30 min. at 37° C., the samples were treated with 100 nM IA-Rhodamine (tetramethylrhodamine-5-iodoacetamide dihydroiodide; Setareh Biotech, 6222, prepared in anhydrous DMSO) for 1 hour at room temperature. Samples were then diluted with 20 μL of 4× reducing Laemmli SDS sample loading buffer (Alfa Aesar) and heated at 90° C. for 5 min. The samples were separated on precast 4-20% Criterion TGX gels (Bio-Rad Laboratories, Inc.). Fluorescent imaging was performed on a ChemiDoc MP instrument (Bio-Rad Laboratories, Inc.), and inhibition of target labeling was assessed by densitometry using ImageJ software. The initial screen was performed using 50 μM of test compound.
# T1 sequence (Q13501 whole entry): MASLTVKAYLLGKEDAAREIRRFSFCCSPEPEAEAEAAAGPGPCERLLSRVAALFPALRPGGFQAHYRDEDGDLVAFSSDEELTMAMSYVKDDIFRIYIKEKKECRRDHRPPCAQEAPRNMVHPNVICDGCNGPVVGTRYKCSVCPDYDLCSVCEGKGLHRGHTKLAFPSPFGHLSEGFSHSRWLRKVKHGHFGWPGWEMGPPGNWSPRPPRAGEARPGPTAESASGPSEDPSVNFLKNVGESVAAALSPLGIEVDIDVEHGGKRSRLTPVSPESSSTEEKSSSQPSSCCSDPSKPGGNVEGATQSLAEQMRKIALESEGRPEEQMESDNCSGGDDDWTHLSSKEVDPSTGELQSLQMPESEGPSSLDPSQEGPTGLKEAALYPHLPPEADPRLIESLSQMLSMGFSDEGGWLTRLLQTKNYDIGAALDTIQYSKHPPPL
SMILES,% inhibition,inhibition at 50 µM
"CC1CN(C(=O)CCl)CCCO1 (stereo not drawn) [Compound 22, 2-chloro-1-(2-methyl-1,4-oxazepan-4-yl)ethanone]",not active,
"CC(C)N(C(=O)CCl)C1CCCN(C(=O)OC(C)(C)C)CC1 (stereo not drawn) [Compound 8, Tert-butyl 4-(2-chloro-N-isopropylacetamido)azepane-1-carboxylate]",,50%
"O=C(NCC1(O)CCCN(C(=O)CCl)CC1)OCc1ccccc1 (stereo not drawn) [Compound 34, Benzyl ((1-(2-chloroacetyl)-4-hydroxyazepan-4-yl)methyl)carbamate]",,14%
"O=C(NCC1CCCCN(C(=O)CCl)C1)OCc1ccccc1 (stereo not drawn) [Compound 27, Benzyl ((1-(2-chloroacetyl)azepan-3-yl)methyl)carbamate]",,58%
"O=C(CCl)N1CC2CNC(C2)C1 (stereo not drawn) [Compound 73, 2-chloro-1-(3,6-diazabicyclo[3.2.1]octan-3-yl)ethanone]",,38%
"CC(C)(C)OC(=O)N1CCN(C(=O)CCl)CC2(CCCC(=O)N2)C1 (stereo not drawn) [Compound 60, Tert-butyl 11-(2-chloroacetyl)-2-oxo-1,8,11-triazaspiro[5.6]dodecane-8-carboxylate]",,21%
"CC1(C)CCCN(C(=O)CCl)CC1 [Compound 23, 2-chloro-1-(4,4-dimethylazepan-1-yl)ethanone]",,21%
"CC1CCCCCN1C(=O)CCl (stereo not drawn) [Compound 13, 2-chloro-1-(2-methylazepan-1-yl)ethan-1-one]",,49%
"O=C(CCl)N1CCCCC2(CCCCNC2)C1 (stereo not drawn) [Compound 70, 2-chloro-1-(2,9-diazaspiro[6.6]tridecan-2-yl)ethanone]",,22%
"CC(C)(C)OC(=O)N1CCN(C(=O)CCl)CC(O)C1 (stereo not drawn) [Compound 18, Tert-butyl 4-(2-chloroacetyl)-6-hydroxy-1,4-diazepane-1-carboxylate]",,21%
"CC1CCN(C(=O)CCl)CCC1O (stereo not drawn) [Compound 45, 2-chloro-1-(4-hydroxy-5-methylazepan-1-yl)ethanone]",not active,
"O=C(CCl)N1CCCC2(CCCN2)CC1 (stereo not drawn) [Compound 69, 2-chloro-1-(1,8-diazaspiro[4.6]undecan-8-yl)ethanone]",,22%
"O=C(NCC1(O)CCCCN(C(=O)CCl)C1)OCc1ccccc1 (stereo not drawn) [Compound 30, Benzyl ((1-(2-chloroacetyl)-3-hydroxyazepan-3-yl)methyl)carbamate]",,50%
"CC1(O)CCCCN(C(=O)CCl)C1 (stereo not drawn) [Compound 39, 2-chloro-1-(3-hydroxy-3-methylazepan-1-yl)ethanone]",,20%
"CC(C)(C)OC(=O)N1CCC(N(C(=O)CCl)C2CC2)CC1 [Compound 6, Tert-butyl 4-(2-chloro-N-cyclopropylacetamido)piperidine-1-carboxylate]",,56%
"C[C@H]1CN(C(=O)OC(C)(C)C)CCCN1C(=O)CCl [Compound 12, (S)-tert-butyl 4-(2-chloroacetyl)-3-methyl-1,4-diazepane-1-carboxylate]",not active,
"O=C1CCCC2(CNCCN(C(=O)CCl)C2)N1 (stereo not drawn) [Compound 72, 8-(2-chloroacetyl)-1,8,11-triazaspiro[5.6]dodecan-2-one]",not active,
"O=C(CCl)N1Cc2ccnn2CC(O)C1 (stereo not drawn) [Compound 55, 2-chloro-1-(7-hydroxy-7,8-dihydro-4H-pyrazolo[1,5-a][1,4]diazepin-5(6H)-yl)ethanone]",,35%
"CC1CN(C(=O)CCl)CCCC1CNC(=O)OCc1ccccc1 (stereo not drawn) [Compound 28, Benzyl ((1-(2-chloroacetyl)-3-methylazepan-4-yl)methyl)carbamate]",,59%
"O=C(CCl)N1CCNCC(O)C1 (stereo not drawn) [Compound 67, 2-chloro-1-(6-hydroxy-1,4-diazepan-1-yl)ethanone]",,35%
"O=C(CCl)N(C1CCNCC1)C1CC1 [Compound 62, 2-chloro-N-cyclopropyl-N-(4-piperidyl)acetamide]",,27%
"CC(C)(C)OC(=O)N1CCCC12CCCN(C(=O)CCl)CC2 (stereo not drawn) [Compound 57, Tert-butyl 8-(2-chloroacetyl)-1,8-diazaspiro[4.6]undecane-1-carboxylate]",,58%
"CC(C)(C)OC(=O)N1CC2CC1CN(C(=O)CCl)C2 (stereo not drawn) [Compound 61, Tert-butyl 3-(2-chloroacetyl)-3,6-diazabicyclo[3.2.1]octane-6-carboxylate]",,18%
"CC1(F)CCCCN(C(=O)CCl)C1 (stereo not drawn) [Compound 29, 2-chloro-1-(3-fluoro-3-methylazepan-1-yl)ethanone]",,38%
"NC1CCCCN(C(=O)CCl)C1 (stereo not drawn) [Compound 68, 1-(3-aminoazepan-1-yl)-2-chloro-ethanone]",,44%
"O=C(CCl)N1CCCC(O)(C(F)(F)F)CC1 (stereo not drawn) [Compound 33, 2-chloro-1-(4-hydroxy-4-(trifluoromethyl)azepan-1-yl)ethanone]",,32%

# Continued, values first:
% inhibition,inhibition at 50 µM,SMILES
not active,,"O=C(CCl)N(C1CCNCC1)C1CCOCC1 [Compound 63, 2-chloro-N-(piperidin-4-yl)-N-(tetrahydro-2H-pyran-4-yl)acetamide]"
,58%,"O=C(CCl)N(Cc1ccccc1)C1CCCC[C@H]1CO (stereo in doubt) [Compound 3, N-benzyl-2-chloro-N-(cis-2-(hydroxymethyl)cyclohexyl)acetamide]"
,9%,"CC1(O)CCCN(C(=O)CCl)CC1 (stereo not drawn) [Compound 49, 2-chloro-1-(4-hydroxy-4-methylazepan-1-yl)ethanone]"
,17%,"O=C(CCl)N(Cc1ccccc1)[C@H]1COC[C@@H]1O [Compound 10, N-benzyl-2-chloro-N-[(3S,4R)-4-hydroxytetrahydrofuran-3-yl]acetamide]"
,38%,"CCN1CCCN(C(=O)CCl)CC1 [Compound 14, 2-chloro-1-(4-ethyl-1,4-diazepan-1-yl)ethan-1-one]"
,7%,"COC(=O)c1ccc(CN(C(=O)CCl)C2CCNCC2)[nH]1 [Compound 65, Methyl 5-[[(2-chloroacetyl)-(4-piperidyl)amino]methyl]-1H-pyrrole-2-carboxylate]"
,50%,"O=C(CCl)N1CCc2nccn2CC1 [Compound 56, 2-chloro-1-(8,9-dihydro-5H-imidazo[1,2-d][1,4]diazepin-7(6H)-yl)ethanone]"
,25%,"O=C(CCl)N1CCC(F)C(F)(F)CC1 (stereo not drawn) [Compound 43, 2-chloro-1-(4,4,5-trifluoroazepan-1-yl)ethanone]"
,20%,"O=C(CCl)N1CCCN(c2ccc(F)cn2)CC1 [Compound 16, 2-chloro-1-(4-(5-fluoropyridin-2-yl)-1,4-diazepan-1-yl)ethanone]"
,22%,"CC(C)N(C(=O)CCl)C1CCCNCC1 (stereo not drawn) [Compound 64, N-(azepan-4-yl)-2-chloro-N-isopropyl-acetamide]"
,34%,"CC1(F)CCCN(C(=O)CCl)CC1 (stereo not drawn) [Compound 36, 2-chloro-1-(4-fluoro-4-methylazepan-1-yl)ethanone]"
,29%,"O=C(CCl)N1CCCC(O)CC1 (stereo not drawn) [Compound 15, 2-chloro-1-(4-hydroxyazepan-1-yl)ethan-1-one]"
,13%,"O=C(CCl)N1CCCCC(O)C1 (stereo not drawn) [Compound 44, 2-chloro-1-(3-hydroxyazepan-1-yl)ethanone]"
